# Values quoted from earlier work as cited in US20170049836A1, “COMPOSITIONS COMPRISING BOTANICALS, INCLUDING THE USE AND METHOD OF USE THEREOF” (FEM MED FORMULAS LIMITED PARTNERSHIP, priority 2010, published 2017).
# Like-named read-outs stand apart in the source and are kept apart here.
# How the values were obtained:
# [1] = test system: estrogen receptor-positive breast cancer cells
# [2] = test system: ratio of 2-OHE to 16-αOHE
Structure (SMILES),effect on cell growth / proliferation [1],"women with sustained increase in ratio of 2-OHE to 16-αOHE ([2]; 17 of 20 women, 200 or 400 mg/day) [%]","average increase in 2-OHE:16-αOHE ratio ([2]; 20 women, 400 mg daily) [%]","increase in 2-OHE:16-αOHE ratio, overall ([2]; 200-400 mg, regular consumption, vast majority of women)","average increase in ratio of 2-OHE to 16-αOHE ([2]; 200 or 400 mg/day, over the course of the trial) [%]","change in 2-OHE:16-αOHE ratio ([2]; all 20 women, 300 or 400 mg, 4 weeks)","average increase in 2-OHE:16-αOHE ratio ([2]; non-obese women, same trial) [%]","average increase in 2-OHE:16-αOHE ratio ([2]; obese women (four out of five), two-month period) [%]"
"C[C@]12CC[C@@H]3c4ccc(O)cc4CC[C@H]3[C@@H]1C[C@@H](O)C2=O [16-αOHE, 16-αhydrxyestrone]",stimulates proliferation,–,–,–,–,–,–,–
"C[C@]12CC[C@@H]3c4cc(O)c(O)cc4CC[C@H]3[C@@H]1CCC2=O [2-OHE, 2-hydroxyestrone]",no effect on cell growth,–,–,–,–,–,–,–
"OCc1c[nH]c2ccccc12 [I3C, Indole-3-carbinol]",–,85,65,approx. 60%,44,significantly increased,38,93
